For test [1], the target named is WDR5 (Homo sapiens, UniProt P61964). Description: WDR5 HTRF binding assay. The conditions noted are these: read-out: (a) WDR5 HTRF Pep Val v.1[Inhibitor/IC50]Qualified AC50. In a few lines: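 In this HTRF displacement format, biotinylated MLL1 WIN peptide (3762-3773, 20 nM) binds WDR5 (6 nM) in 25 mM Hepes pH 7.5 with 100 mM NaCl, 2 mM DTT and 0.1% BSA for 20 min at rt. Detection used streptavidin-APC/anti-His-Eu for 1 hr. IC50 came from dose-response fits of normalized signal; 15 nM biotin-PEG-His peptide served as counter assay.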
(TR-FRET usually uses a lanthanide donor and a delayed reading to cut background.)

The target of test [2] is wild type MLL1 four-member complex (MLL1-4C) (Homo sapiens, UniProt P61964). Description: MLL1 LC-MS assay (SAH production). The class given is biochemical. To be noted: read-out: (b) MLL LCMS Peptide Val.v.1 Qualified AC50. An outline of the steps:
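SAH formation, measured by LC-MS/MS after a TFA quench containing d4-SAH, was normalised to no-compound and no-enzyme controls and fitted to a dose-response curve for IC50. Reactions ran 120 min at rt (pH 8.0 Tris buffer) with final 30 nM MLL1 four-member complex, 2.5 μM SAM and 10 μM biotinylated H3[1-21] peptide, after a 20-min enzyme/SAM-compound preincubation.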

In test [3] the test system is MV4-11 cells. Description: MV4-11 6-day cell growth CTG (CellTiter-Glo) assay. The conditions noted are these: Homo sapiens, MV4-11, 144 h, 6 days, read-out: (c) MLL/WDR5 cell proliferation assay//MLL/WDR5 proliferation MV4:11 Qualified AC50. It is filed as cell-based. In a few lines: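 IC50 comes from a dose-response fit of % inhibition relative to DMSO controls, with viable cells measured by CellTiter-Glo luminescence. Compounds were tested over 12 points (1:3, starting at 50 μM final) on MV4-11 cells plated at 300/well and grown 6 days.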

Take `CNc1nccn1Cc1cc2c(c(-c3cn(C)nc3C(F)F)c1)CCN(Cc1ccc(F)c(OC)c1)C2=O` [Example 66, 5-(3-(difluoromethyl)-1-methyl-1H-pyrazol-4-yl)-2-(4-fluoro-3-methoxybenzyl)-7-((2-(methylamino)-1H-imidazol-1-yl)methyl)-3,4-dihydroisoquinolin-1(2H)-one]: the IC50 in test [1] was 10 to 1000 nM. Moreover, the AC50 in test [2] and in test [3] was 10 to 1000 nM in each case.

Consider `CCOc1cc(C(C)N2CCc3c(cc(CCN(C)CC)cc3-c3cc4[nH]cnc4nc3C)C2=O)ncc1C#N` (stereo not drawn) [Example 206, 4-ethoxy-6-(1-(7-(2-(ethyl(methyl)amino)ethyl)-5-(5-methyl-1H-imidazo[4,5-b]pyridin-6-yl)-1-oxo-3,4-dihydroisoquinolin-2(1H)-yl)ethyl)nicotinonitrile], for which, in test [1], the IC50 fell in the range of 10 to 1000 nM. For the same compound, the AC50 in test [2] and in test [3] was 10 to 1000 nM in each case.

Regarding `CCOc1cc([C@H](C)N2CCc3c(cc(CCN(C)CC)cc3-c3cc(CC#N)cnc3C)C2=O)ncc1C#N` [Example 192, (S)-6-(1-(5-(5-(cyanomethyl)-2-methylpyridin-3-yl)-7-(2-(ethyl(methyl)amino)ethyl)-1-oxo-3,4-dihydroisoquinolin-2(1H)-yl)ethyl)-4-ethoxynicotinonitrile], the IC50 in test [1] is < 10 nM. Moreover, the AC50 in test [2] and in test [3] was 10 to 1000 nM each time.

On to `CCOc1cc([C@H](C)N2CCc3c(cc(CCN(C)CC)cc3-c3cc(C)ncc3F)C2=O)ncc1C#N` [Example 142, (S)-4-ethoxy-6-(1-(7-(2-(ethyl(methyl)amino)ethyl)-5-(5-fluoro-2-methylpyridin-4-yl)-1-oxo-3,4-dihydroisoquinolin-2(1H)-yl)ethyl)nicotinonitrile], for which the IC50 in test [1] is 10 to 1000 nM. For the same compound, the AC50 in test [2] and in test [3] was 10 to 1000 nM throughout.

Consider `CCOc1cc([C@H](C)N2CCc3c(cc(CCN4C[C@@H](O)[C@H]4C)cc3-c3cn(C)c(=O)cc3C)C2=O)ncc1C#N` [Example 216], for which the IC50 in test [1] was < 10 nM. For the same compound, the AC50 in test [2] and in test [3] was 10 to 1000 nM each time.

For the compound `CCOc1cc(CN2CCc3c(cc(CCN(C)CC)cc3-c3ccc(N)nc3C)C2=O)ncc1C#N` [Example 155, 6-((5-(6-amino-2-methylpyridin-3-yl)-7-(2-(ethyl(methyl)amino)ethyl)-1-oxo-3,4-dihydroisoquinolin-2(1H)-yl)methyl)-4-ethoxynicotinonitrile], in test [1], the IC50 lay in the range of 10 to 1000 nM. Further, the AC50 in test [2] and in test [3] was 10 to 1000 nM in each case.

In the case of `CCOc1cc([C@H](C)N2CCc3c(cc(CCN(C)CC)cc3-c3cn4ccnc4cc3C)C2=O)ncc1C#N` [Example 190, (S)-4-ethoxy-6-(1-(7-(2-(ethyl(methyl)amino)ethyl)-5-(7-methylimidazo[1,2-a]pyridin-6-yl)-1-oxo-3,4-dihydroisoquinolin-2(1H)-yl)ethyl)nicotinonitrile], the IC50 in test [1] was < 10 nM. For the same compound, the AC50 in test [2] and in test [3] was 10 to 1000 nM throughout.

For `CCOc1cc([C@H](C)N2CCc3c(cc(Cn4ccnc4C)cc3-c3nc(C(F)F)nn3C)C2=O)ncc1C#N` [Example 293], in test [1], the IC50 lay within 10 to 1000 nM. The AC50 in test [2] and in test [3] was 10 to 1000 nM in each case.

On to `CNc1nccn1Cc1cc(-c2cc(CO)cnc2Cl)c2ccn(Cc3ccc(OC)c(F)c3)c(=O)c2c1` [Example 104, 5-(2-chloro-5-(hydroxymethyl)pyridin-3-yl)-2-(3-fluoro-4-methoxybenzyl)-7-((2-(methylamino)-1H-imidazol-1-yl)methyl)isoquinolin-1(2H)-one], for which, in test [1], the IC50 lay within 10 to 1000 nM. Besides, the AC50 in test [2] and in test [3] was 10 to 1000 nM throughout.

As to `CNc1nccn1Cc1ccc2c(c1)C(=O)N([C@@H](C)c1cnc(F)c(OC)c1)CC2` (single isomer, unassigned) [Example 94], the IC50 in test [1] fell in the range of 10 to 1000 nM. For the same compound, the AC50 in test [2] and in test [3] was 10 to 1000 nM in each case.

For `CCOc1cc([C@H](C)N2CCc3c(cc(CCN(C)CC)cc3-c3cc(C(F)F)cnc3C)C2=O)ncc1C#N` [Example 177, (S)-6-(1-(5-(5-(difluoromethyl)-2-methylpyridin-3-yl)-7-(2-(ethyl(methyl)amino)ethyl)-1-oxo-3,4-dihydroisoquinolin-2(1H)-yl)ethyl)-4-ethoxynicotinonitrile], the IC50 in test [1] is < 10 nM. Moreover, the AC50 in test [2] and in test [3] was 10 to 1000 nM throughout.

With `CNc1nccn1Cc1cc(-c2cc(CO)cnc2Cl)c2ccn([C@H](C)c3cccc(OC)c3)c(=O)c2c1` [Example 103, (R)-5-(2-chloro-5-(hydroxymethyl)pyridin-3-yl)-2-(1-(3-methoxyphenyl)ethyl)-7-((2-(methylamino)-1H-imidazol-1-yl)methyl)isoquinolin-1(2H)-one], the IC50 in test [1] lay in the range of 10 to 1000 nM. Further, the AC50 in test [2] and in test [3] was 10 to 1000 nM each time.

Regarding `CCOc1cc(CN2CCc3ccc(Cn4ccnc4NC)cc3C2=O)cnc1C#N` [Example 96, 3-ethoxy-5-((7-((2-(methylamino)-1H-imidazol-1-yl)methyl)-1-oxo-3,4-dihydroisoquinolin-2(1H)-yl)methyl)picolinonitrile], in test [1], the IC50 fell in the range of 10 to 1000 nM. Also, the AC50 in test [2] and in test [3] was 10 to 1000 nM in each case.

For `CNc1nccn1Cc1cc2c(c(-c3cc(CO)ccc3Cl)c1)CCN(Cc1ccc(F)c(OC)c1)C2=O` [Example 65, 5-(2-chloro-5-(hydroxymethyl)phenyl)-2-(4-fluoro-3-methoxybenzyl)-7-((2-(methylamino)-1H-imidazol-1-yl)methyl)-3,4-dihydroisoquinolin-1(2H)-one], the IC50 in test [1] fell in the range of 10 to 1000 nM. The AC50 in test [2] and in test [3] was 10 to 1000 nM in each case.

On to `CCOc1cc([C@H](C)N2CCc3c(cc(CCN(C)CC)cc3-c3cn(C)nc3C)C2=O)ncc1C#N` [Example 134, (S)-6-(1-(5-(1,3-dimethyl-1H-pyrazol-4-yl)-7-(2-(ethyl(methyl)amino)ethyl)-1-oxo-3,4-dihydroisoquinolin-2(1H)-yl)ethyl)-4-ethoxynicotinonitrile], for which, in test [1], the IC50 was < 10 nM. Also, the AC50 in test [2] and in test [3] was 10 to 1000 nM throughout.

Consider `CCOc1cc([C@H](C)N2CCc3c(CN4CC[C@@H](F)C4)cc(Cn4ccnc4NC)cc3C2=O)ncc1F` [Example 14, 2-((S)-1-(4-ethoxy-5-fluoropyridin-2-yl)ethyl)-5-(((R)-3-fluoropyrrolidin-1-yl)methyl)-7-((2-(methylamino)-1H-imidazol-1-yl)methyl)-3,4-dihydroisoquinolin-1(2H)-one], for which the IC50 in test [1] was in the range of 10 to 1000 nM. Besides, the AC50 in test [2] and in test [3] was 10 to 1000 nM in each case.

`CCOc1cc(C(C)N2CCc3c(cc(CCN(C)CC)cc3C3CC3)C2=O)ncc1C#N` (stereo not drawn) [Example 158, 6-(1-(5-cyclopropyl-7-(2-(ethyl(methyl)amino)ethyl)-1-oxo-3,4-dihydroisoquinolin-2(1H)-yl)ethyl)-4-ethoxynicotinonitrile]: the IC50 in test [1] was 10 to 1000 nM. The results for the AC50 in test [2] and in test [3] were 10 to 1000 nM and 1000 to 25000 nM, respectively.

Take `CCOc1cc(C(C)N2CCc3c(cc(CCN(C)CC)cc3-c3cc(OC)ncc3Cl)C2=O)ncc1C#N` (stereo not drawn) [Example 136, 6-(1-(5-(5-chloro-2-methoxypyridin-4-yl)-7-(2-(ethyl(methyl)amino)ethyl)-1-oxo-3,4-dihydroisoquinolin-2(1H)-yl)ethyl)-4-ethoxynicotinonitrile]: in test [1], the IC50 is < 10 nM. Further, the AC50 in test [2] and in test [3] was 10 to 1000 nM throughout.

As to `CCOc1cc([C@H](C)N2CCc3ccc(Cn4ccnc4NC)cc3C2=O)cnc1Cl` [Example 95, (S)-2-(1-(6-chloro-5-ethoxypyridin-3-yl)ethyl)-7-((2-(methylamino)-1H-imidazol-1-yl)methyl)-3,4-dihydroisoquinolin-1(2H)-one], the IC50 in test [1] is 10 to 1000 nM. The AC50 in test [2] and in test [3] was 10 to 1000 nM throughout.

Take `CCOc1cc([C@H](C)N2CCc3c(cc(CCN(C)CC(C)O)cc3-c3ccc(F)nc3C)C2=O)ncc1C#N` (stereo partly drawn) [Example 242]: in test [1], the IC50 is 10 to 1000 nM. Moreover, the AC50 in test [2] and in test [3] was 10 to 1000 nM throughout.

Take `CCOc1cc([C@H](C)N2CCc3c(cc(Cn4ccnc4C)cc3-c3cn(C)c(=O)c(F)c3C)C2=O)ncc1F` [Example 283]: the IC50 in test [1] is < 10 nM. Further, the AC50 in test [2] and in test [3] was 10 to 1000 nM in each case.

In the case of `CCOc1cc(C(C)N2CCc3c(cc(CCN(C)CCF)cc3-c3ccc(F)nc3C)C2=O)ncc1C#N` (stereo not drawn) [Example 236], the IC50 in test [1] is < 10 nM. Further, the AC50 in test [2] and in test [3] was 10 to 1000 nM throughout.

`CCOc1cc([C@H](C)N2CCc3c(cc(CCN(C)CC)cc3-c3cc(OC)cnc3C)C2=O)ncc1C#N` [Example 167, (S)-4-ethoxy-6-(1-(7-(2-(ethyl(methyl)amino)ethyl)-5-(5-methoxy-2-methylpyridin-3-yl)-1-oxo-3,4-dihydroisoquinolin-2(1H)-yl)ethyl)nicotinonitrile]: the IC50 in test [1] is < 10 nM. Moreover, the AC50 in test [2] and in test [3] was 10 to 1000 nM in each case.

For the origin of these results see US20220289732A1, “HETEROCYCLIC WDR5 INHIBITORS AS ANTI-CANCER COMPOUNDS” (NOVARTIS AG, priority 2019, published 2022).
